For the test, the target named is HCV replicon Luc Neo ET. As to the kind of experiment: HCV replication inhibition assay (replicon assay, luciferase reporter). The test is classed as cell-based. Particulars: Huh-7 cell lines containing HCV replicon Luc Neo ET; 72 hours with compound; 1 % DMSO; firefly luciferase reporter; concentration that produces 50 % of replication inhibition; read-out: EC50 Replicon LucneoET.

The values below come from EP2664616A1, “Hydantoin and thiohydantoin derivatives as antiviral drugs” (priority 2012, dated 2013).

For the compound “N-[4-(dimethylamino)phenyl]-2-[1-(4-fluorophenyl)-4-hydroxy-3-[2-(4-methoxyphenyl)ethyl]-5-oxo-2-sulfanylideneimidazolidin-4-yl]acetamide [Example 77]”, the EC50 was under 0.5 µM.
In the case of `COc1ccc2[nH]cc(CCN3C(=S)N(c4ccccc4)C(=O)C3CC(=O)Nc3ccccc3)c2c1` (centres unmarked) [Example 17], the EC50 is under 5 µM.

As a reminder, the EC50 is the concentration giving half of the maximal effect.
